Where two headings read alike, the source gives them in different places.

One may read the IC50 as the concentration that gives 50% inhibition. As usually defined, the Cmax is the peak of the concentration-time curve. By Tmax is commonly meant the time at which the peak concentration occurs.

One data set relates to MCF7/ADR. Put plainly: Anti-proliferative activity test in cancer cells exhibiting multidrug resistance (MTT). It is filed as cell-based. To be noted: for IC50: Homo sapiens, NCI/ADR-RES, 96 h, MCF7/ADR (multidrug-resistant), 4 days, MTT; for Resistance Factor: ratio IC50 MCF7/ADR to IC50 MCF7. The procedure:
(§1) HeLa cells (American Type Culture Collection: ATCC, USA), a human cervical cancer cell line, were seeded in a 96-well plate at 3×10^3 cells/well, and the cells were then treated with compounds of Examples or Comparative Example according to the present invention and grown for 2 days. Then, MTT (3-(4,5-dimethylthiazol-2-yl)-2,5-diphenyltetrazolium bromide) reagent was added at 10 μL/well. […] The data shown in Table below are mean values of results obtained by repeating the analysis twice. Specifically, K562 and MCF7 (Bio Evaluation Center, Korea Research Institute of Bioscience and Biotechnology, Korea) and multidrug-resistant cell lines of each of these cell lines, i.e., K562/ADR and MCF7/ADR (Bio Evaluation Center, Korea Research Institute of Bioscience and Biotechnology, Korea), were cultured on microtiter plates (1-3×10^3 cells/well). […] The data shown in Table below are mean values of results obtained by repeating the analysis three times.

For another data set, the system named is K562/ADR. The description is as above. The format is cell-based. Conditions: for IC50: Homo sapiens, 96 h, K562/ADR (multidrug-resistant), 4 days, MTT; for Resistance Factor: ratio IC50 K562/ADR to IC50 K562. The procedure: as §1
Another data set deals with K562. The data set can be described thus: Anti-proliferative activity test in cancer cells exhibiting multidrug resistance (MTT), parent line. It is filed as cell-based. Conditions: Homo sapiens, 96 h, 4 days. As for the experimental part:
as §1

The next data set has as its system MCF7. Described as above. It is filed as cell-based. Conditions: Homo sapiens, 96 h, 4 days. The procedure: as §1
Data set [1] can be described thus: Stability test in plasma. It is filed as in vitro ADME. Conditions: Rat plasma, 37° C. As for the experimental part:
In order to test the stability (in vivo) of the Example compounds according to the present invention, the compounds of Examples 2, 3, 4, 8 and 15 were administered intravenously, and plasma concentrations over time were observed. In addition, procaine was used as a positive control. Plasma stability was measured three times by administering the test compound at a concentration of 5 mM to human, rat, or mouse plasma (90 μL) at 37° C. Results thereof are shown in Table below and FIGS. 3A to 3E.

The test system of another data set is HeLa CCL2 tumor. The data set can be described thus: Anticancer effect test in human cervical cancer cell (HeLa CCL2) transplantation model. Conditions: 25 mg/kg intraperitoneally, p<0.001. The format is in vivo, BALB/C female nude mouse. As for the experimental part: After thawing the human […] cancer cell line HeLa CCL2 that was stored frozen in liquid nitrogen, cell culture was performed. The cells were cultured for an appropriate period in a CO2 incubator (Forma, USA) at a temperature of 37° C. and a CO2 concentration of 5%.
On the last day of culture, all cancer cells were collected and counted, and the cell concentration was adjusted to 1×10^7 cells/mL using serum free media. The cell culture solution as adjusted above was injected subcutaneously into the axillary region between the shoulder blade and the chest wall in an amount of 0.3 mL (3×10^6 cells/mouse) per BALB/C female nude mouse (5 weeks old, Nara Biotech).
Immediately prior to administration, the compounds were dissolved in a mixture of DMAC (dimethylacetamide) 20%+Tween80 5%+20% HPbCD (2-hydroxypropyl-β-cyclodextrin) 75% at an appropriate concentration and used. The prepared substances were repeatedly administered intraperitoneally in an amount of 0.2 mL (10 mL/kg) per 20 g of a mouse according to the following administration schedule. • carrier, the compound of Example 4, the compound of Example 8, and the compound of Example 15 (25 mg/kg), 0-28 days 4.3. Confirmation of Change in Tumor Size
After cancer cell transplantation, the tumor size of each animal subject was measured a total of 11 times in 3 directions using a vernier caliper from when the mean tumor size reached 57.0 mm^3 until Day 28, and calculated by the formula of length×width×height/2.
In order to test the degree of toxicity upon repeated intraperitoneal administration of the Example compound to HeLa CCL2 cancer cell transplantation nude mice, general symptoms and body weight changes of the animal subjects were observed during the administration period.
On Day 28 after drug administration, blood was collected from the mouse ophthalmic veins in 2 hours post the last administration, and the mice were killed using CO2 gas. Images of the mice were taken, and the tumor was separated and weighed on an electronic scale. After taking the images, each tumor was divided in half and fixed in liquid nitrogen and formalin, respectively. On […] after drug administration, the HeLa CCL2 tumor was excised and weighed.

Data set [2] in a line: Solubility test in administration solvent. The format is physicochemical. Conditions: 2.0 mg/mL; Solvent A 20%, Solvent B 20%, Solvent C 60% (dimethylacetamide/Cremophor EL/20% HPbCD). The procedure:
The test substances were accurately weighed and placed in a glass vial. Then, solvent A was added in an amount corresponding to 20% of the desired final solution volume, and the mixture was completely dissolved by treatment with a vortexer and sonication. Next, solvent B in an amount corresponding to 10% or 20% of the final solution volume was added and mixed well. […] Finally, the mixture was subjected to sonication for 30 seconds. The mixed solution was prepared and used immediately before administration in the experiment. • Solvent A: Dimethylacetamide produced by SigmaAldrich • Solvent B: Cremophor EL produced by SigmaAldrich • Solvent C: 20% HPbCD ((2-Hydroxypropyl)-β-cyclodextrin produced by SigmaAldrich) in deionized water

Data set [3] in a line: Metabolic stability test in liver microsomes. To be noted: 0.5 mg protein/mL, 37° C. It is filed as in vitro ADME. The procedure:
(§2) The test compounds at a concentration of […] were administered in the presence or absence of NADPH (1 mM) to liver […] (0.5 mg protein/mL) of humans, rats and mice, and metabolic stability was tested at 37° C. for 30 minutes. In addition, buspirone was used as a positive control. Results thereof are shown in Table below and FIGS. 4A to 4E.

Data set [4] is described as follows: Stability test in plasma. To be noted: 37° C. More on the design: Residue % (180 minutes elapsed), Mean: dose or concentration left out as unconfirmed. The format is in vitro ADME. As for the experimental part:
In order to test the stability (in vivo) of the Example compounds according to the present invention, the compounds of Examples 2, 3, 4, 8 and 15 were administered intravenously, and plasma concentrations over time were observed. In addition, procaine was used as a positive control. Plasma stability was measured three times by administering the test compound at a concentration […] to human, rat, or mouse plasma (90 μL) at 37° C. Results thereof are shown in Table below and FIGS. 3A to 3E.

Data set [5] can be described thus: Pharmacokinetic (PK) test. The format is in vivo, male ICR mice. Conditions: for Vd: iv; for AUC(0-t): read-out: AUClast, Mean. The procedure:
Pharmacokinetic (PK) parameters of the Example compounds according to the present invention were determined using male ICR mice as follows (n=3).
Pharmacokinetic (PK) parameters were measured by non-compartmental analysis of plasma concentration-time curves using Kinetica™ 4.4.1 (Thermo Fisher Scientific, USA). Results thereof are shown in Table below and FIGS. 5A to 5C. In Table below, “F” parameter was calculated using AUClast, “N/A” indicates the phrase not applicable, and “NC” indicates the phrase not calculated.

Data set [6] in a line: Stability in buffer (line of the metabolic stability test). The format is in vitro ADME. The procedure:
as §2

A further data set deals with HeLa cells. The data set can be described thus: Anti-proliferative activity test in HeLa cell line (MTT). Conditions: Homo sapiens, 48 h, grown for 2 days, mean of 2. It is filed as cell-based. The procedure: HeLa cells (American Type Culture Collection: ATCC, USA), a human cervical cancer cell line, were seeded in a 96-well plate at 3×10^3 cells/well, and the cells were then treated with compounds of Examples or Comparative Example according to the present invention and grown for 2 days. Then, MTT (3-(4,5-dimethylthiazol-2-yl)-2,5-diphenyltetrazolium bromide) reagent was added at 10 μL/well. After 2 hours, absorbance was measured at “OD 450” and statistical values were obtained using Prism™6 program. The data shown in Table below are mean values of results obtained by repeating the analysis twice.

[7] abbreviates: male, ICR, mouse, plasma, Oral administration, 20 mg/kg, mice, n=3.

In the case of `CC[C@]1(O)C[C@@H]2CN(CCc3c([nH]c4ccccc34)[C@@](C(=O)OC)(c3cc4c(cc3OC)N(C)[C@H]3[C@@](O)(C(=O)OC)[C@H](OC(C)=O)[C@]5(CC)C=CCN6CC[C@]43[C@@H]65)C2)C1` [Vinblastine, vinblastine], the IC50 with MCF7/ADR was found to be 95.9 nM; with K562/ADR it was 268 nM; in the data set on K562, 17.1 nM; in the data set with MCF7 it was 5.28 nM. Besides, the “Resistance Factor” value in the data set on MCF7/ADR was 18.17; in the data set with K562/ADR, 15.63.
For the molecule `CC(=O)O[C@H]1C(=O)[C@@]2(C)[C@H]([C@H](OC(=O)c3ccccc3)[C@]3(O)C[C@H](OC(=O)[C@H](O)[C@@H](NC(=O)c4ccccc4)c4ccccc4)C(C)=C1C3(C)C)[C@]1(OC(C)=O)CO[C@@H]1C[C@@H]2O` [Taxol, taxol], the IC50 worked out at 1030 nM in the data set with MCF7/ADR, 700 nM with K562/ADR, 1.35 nM in the data set with K562 and 2.35 nM with MCF7. Also, the “Resistance Factor” value is listed as 438.38 with MCF7/ADR and 519.6 in the data set with K562/ADR.
With `COc1cccc2c1C(=O)c1c(O)c3c(c(O)c1C2=O)C[C@@](O)(C(=O)CO)C[C@@H]3O[C@H]1C[C@H](N)[C@H](O)[C@H](C)O1` [Doxorubicin, doxorubicin], the IC50 with MCF7/ADR stood at 2610 nM; with K562/ADR, 2190 nM; in the data set with K562 it was 2.85 nM; in the data set on MCF7, 15.4 nM. The “Resistance Factor” value in the data set on MCF7/ADR was 169.57; with K562/ADR, 767.91.
With `CCOCCn1c(Cl)c(/C=N/NC(=O)c2cc3cc(OC)ccc3o2)c2cc(OC)ccc21` [Example 15, (E)-N′-[(2-chloro-1-(2-ethoxyethyl)-5-methoxy-1H-indol-3-yl]methylene}-5-methoxybenzofuran-2-carbohydrazide], the figures for the half-life at 5 mM in the data set “Stability test in plasma [1]”, in “Stability test in plasma [4]” (Human plasma) and in “Stability test in plasma [4]” (Mouse plasma) were 134 min, 160 min and > 180 min, respectively. For the same molecule, the figures for the “Residue % (180 minutes elapsed), Mean” value in the data set “Stability test in plasma [1]” (5 mM), in “Stability test in plasma [4]” (Human plasma) and in the data set “Stability test in plasma [4]” (Mouse plasma) were 41.74%, 4.20% and 57.25%, respectively. In the data set with HeLa CCL2 tumor (0-28 days, Day 28, tumor size), this molecule returned a tumor growth inhibition of 40.13%. Further, in the data set on HeLa CCL2 tumor (excised tumor), the “reduction in tumor weight compared with solvent control” value is 26.2%. Moreover, the Solubility evaluation result in [2] was “Soluble”. Moreover, the “Residue (%) after culturing for 30 min” value in data set [3] (Human, +NADPH) came out at 7.94 ± 0.74%; in data set [3] (Human, −NADPH), 88.63 ± 1.61%; in data set [3] (Mouse, +NADPH), 4.82 ± 0.52%; in data set [3] (Mouse, −NADPH) it was 86.31 ± 1.72%; in [3] (Rat, +NADPH), 3.47 ± 0.25%; in data set [3] (Rat, −NADPH), 94.95 ± 1.93%. Also, the “Residue (%) after culturing for 30 min” value in [6] stood at 91.02 ± 2.89%. For the same molecule, the “F, Mean” value in data set [5] (Oral 20 mg/kg vs intravenous 5 mg/kg, calculated using AUClast) is given as 0.3%. Besides, the Vd amounted to 0.71 L/kg in [5] (male, ICR, mouse, plasma, 5 mg/kg, Intravenous administration, 5 mg/kg, mice, n=3, read-out: Vss, Mean) and 1.37 L/kg in data set [5] (male, ICR, mouse, plasma, 5 mg/kg, Intravenous administration, 5 mg/kg, mice, n=3, read-out: Vz, Mean). Further, the AUC(0-inf) in data set [5] (male, ICR, mouse, plasma, Intravenous administration, 5 mg/kg, mice, n=3, read-out: AUCinf, Mean) was determined as 1730 ng·h/mL. Moreover, the AUC(0-t) in [5] (male, ICR, mouse, plasma, Intravenous administration, 5 mg/kg, mice, n=3) is 1720 ng·h/mL; in data set [5] (setting [7]), 18 ng·h/mL. Moreover, the clearance in data set [5] (male, ICR, mouse, plasma, Intravenous administration, 5 mg/kg, mice, n=3, read-out: CL, Mean (converted)) is 48.2 mL/min/kg. Further, in [5] (male, ICR, mouse, plasma, Intravenous administration, 5 mg/kg, mice, n=3, read-out: MRTinf, Mean), the MRT inf is 14.4 min. For the same molecule, in [5] (male, ICR, mouse, plasma, Intravenous administration, 5 mg/kg, mice, n=3, read-out: t1/2, Mean (converted)), the half-life is 19.8 min. The molecule also registered a Cmax in data set [5] (setting [7]) of 34.4 ng/mL. For the same molecule, the Tmax in data set [5] (setting [7]) was 15 min. Also, in the data set on HeLa cells, half-maximal inhibition (IC50) required 123 nM.

These data come from patent US12612389B2, “Benzofuran-based N-acylhydrazone derivative and pharmaceutical composition comprising same” (KOREA RESEARCH INSTITUTE OF BIOSCIENCE AND BIOTECHNOLOGY, priority 2019, dated 2026).
